PMC5686591, “Identification and Characterization of the Major Porin of Desulfovibrio vulgaris Hildenborough” (Journal of Bacteriology, 2017)

Molecular target: T1, DVU0799 (Nitratidesulfovibrio vulgaris, UniProt Q72DY0)
T1 construct: gene DVU_0799; native protein purified from wild-type outer membranes (octyl glucoside), untagged; monomer about 50 kDa, homotrimer; reconstituted in proteoliposomes
T1 sequence (Q72DY0 24-466): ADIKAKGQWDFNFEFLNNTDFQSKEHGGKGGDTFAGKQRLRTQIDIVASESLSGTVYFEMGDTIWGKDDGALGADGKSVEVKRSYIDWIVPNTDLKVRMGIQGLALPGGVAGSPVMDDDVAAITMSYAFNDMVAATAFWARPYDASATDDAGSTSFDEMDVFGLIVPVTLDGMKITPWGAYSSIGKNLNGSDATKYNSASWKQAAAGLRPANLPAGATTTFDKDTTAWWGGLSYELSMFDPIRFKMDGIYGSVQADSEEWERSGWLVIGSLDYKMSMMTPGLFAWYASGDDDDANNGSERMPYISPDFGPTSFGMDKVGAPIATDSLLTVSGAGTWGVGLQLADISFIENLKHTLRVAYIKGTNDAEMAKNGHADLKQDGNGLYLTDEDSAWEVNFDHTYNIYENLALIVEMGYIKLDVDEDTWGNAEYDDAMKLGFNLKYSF
Assay: liposome swelling assay (OD400), reconstituted proteoliposomes
Assay type: biochemical
Details: pore permeation (passive diffusion)

SMILES: O=C(O)[C@H](O)[C@@H](O)[C@H](O)[C@H](O)CO [D-gluconate]
- relative permeability (relative to L-arabinose, 9 mM solute, 4 mM sodium NAD, 1 mM imidazole-NAD, pH 6.0): purified DVU0799 were also surveyed for their permeability to two sugar acids, D-gluconate

SMILES: OC1OC[C@H](O)[C@H](O)[C@H]1O (stereo partly drawn) [L-arabinose]
- relative permeability (scaling reference of the assay, about 20 mM solute): the permeability profile begins with that for L-arabinose at the upper limit
